These are literature values, as cited in US7851424B2, “Antimicrobial hand wash” (GOJO Industries, Inc., priority 2006, dated 2010).

The term pKa denotes the negative logarithm of the acid dissociation constant.

With `Oc1cc(Cl)ccc1Oc1ccc(Cl)cc1Cl` [Triclosan, 2,4,4′-trichloro-2′hydroxy-diphenylether], the pKa is recorded as 7.4.
